# Measurements published in paper PMC12406204 (Journal of Medicinal Chemistry, 2025).
# Like-named read-outs stand apart in the source and are kept apart here.
# Experiments:
# [1] = biological target: CB1R (Homo sapiens, UniProt P21554); parameters: host or cells: CHO-CB1 C3 cell line
# [2] = biological target: T1, CB2R (Homo sapiens, UniProt P34972); parameters: expressed in transfected cells; host or cells: HEK-293T (HEK-CB2 cell line)
# [3] = biological target: T1, CB2R; assay: CB2R cAMP determination after forskolin stimulation in transfected HEK-293T cells; type: cell-based; parameters: expressed in transfected cells; host or cells: HEK-293T, transient transfection (PEI)
# Method: (§1) Initially we tested their ability to modify CB2R-mediated cAMP accumulation, providing insights into their functional behavior as either agonists or antagonists (Table ). Moreover, the signaling profiles of selected ligands were investigated through their impact on β-arrestin recruitment and Mitogen-Activated Protein Kinase (MAPK) phosphorylation pathway, enabling a more comprehensive evaluation of their intracellular signaling profiles (Table ).
# HEK-293T cells were grown in Dulbecco’s Modified Eagle’s Medium (DMEM) medium (Gibco, Paisley, Scotland, United Kingdom) supplemented with 2 mM L-glutamine, 100 U/mL penicillin/streptomycin, MEM Non-Essential Amino Acids Solution (1/100) and 5% (v/v) heat inactivated Fetal Bovine Serum (FBS) (Invitrogen, Paisley, Scotland, United Kingdom). Cells were maintained in a humid atmosphere of 5% CO2 at 37 °C. Cells were transiently transfected with the PEI (Polyethylenimine, Sigma, St. Louis, MO, United States) method as previously described and used for functional assays 48 h later.
# Signaling experiments have been performed as previously described. Two hours before initiating the experiment, HEK-293T cell-culture medium was replaced by serum-starved DMEM medium. Then, cells were detached, resuspended in growing medium containing […] zardaverine (Tocris, Bristol, U.K.) and placed in 384-well microplates (2500 cells/well). Cells were pretreated (15 min) with cannabinoid compounds (1 nM to 100 μM) -or vehicle- before adding […] forskolin (Tocris, Bristol, U.K.) to induce cAMP accumulation. Readings were performed after 15 min incubation at 25 °C. Homogeneous Time Resolved Fluorescence (HTRF) energy transfer measures were performed using the Lance Ultra cAMP kit (PerkinElmer, Waltham, MA, United States). Fluorescence at 665 nm was analyzed in a PHERA star Flagship microplate reader equipped with an HTRF optical module (BMG Lab Technologies, Offenburg, Germany).
# [4] = biological target: T1, CB2R; assay: CB2R β-arrestin recruitment; type: cell-based; parameters: expressed in transfected cells; host or cells: HEK-293T, transient transfection (PEI)
# Text: as §1
# (§2) JWH-133, a well-known nonbiased (balanced) agonist, was employed as the reference for comparing the signaling profiles of the tested compounds. An operational model analysis was applied to quantify the functional bias of each CB2R-selective agonist. This involved calculating the bias factor by comparing the signaling pathways: β-arrestin versus cAMP, MAPK versus cAMP, and β-arrestin versus MAPK.
# [5] = biological target: T1, CB2R; assay: CB2R MAPK phosphorylation; type: cell-based; parameters: expressed in transfected cells; host or cells: HEK-293T, transient transfection (PEI)
# Text: as §1, §2
# [6] = read-out: CB1R Ki; abused SCRAs and N-methyl analogues, earlier study of the authors; cited from earlier work
# [7] = read-out: CB2R Ki; abused SCRAs and N-methyl analogues, earlier study of the authors; cited from earlier work
# [8] = at 1 μM, earlier study of the authors; cited from earlier work
# Chain of CB1R (P21554 whole entry): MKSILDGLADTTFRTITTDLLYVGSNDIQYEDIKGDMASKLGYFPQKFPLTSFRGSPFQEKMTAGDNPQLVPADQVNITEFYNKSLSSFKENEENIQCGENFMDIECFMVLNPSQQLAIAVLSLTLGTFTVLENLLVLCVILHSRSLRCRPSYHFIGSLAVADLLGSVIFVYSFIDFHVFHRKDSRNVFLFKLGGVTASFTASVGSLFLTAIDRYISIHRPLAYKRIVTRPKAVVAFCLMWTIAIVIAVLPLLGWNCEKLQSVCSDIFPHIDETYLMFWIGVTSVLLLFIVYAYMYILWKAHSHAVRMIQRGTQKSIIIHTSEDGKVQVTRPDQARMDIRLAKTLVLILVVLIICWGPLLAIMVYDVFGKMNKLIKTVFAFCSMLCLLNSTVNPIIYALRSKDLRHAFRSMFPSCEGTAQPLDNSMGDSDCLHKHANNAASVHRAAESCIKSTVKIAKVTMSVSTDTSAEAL
# T1 sequence (P34972 whole entry): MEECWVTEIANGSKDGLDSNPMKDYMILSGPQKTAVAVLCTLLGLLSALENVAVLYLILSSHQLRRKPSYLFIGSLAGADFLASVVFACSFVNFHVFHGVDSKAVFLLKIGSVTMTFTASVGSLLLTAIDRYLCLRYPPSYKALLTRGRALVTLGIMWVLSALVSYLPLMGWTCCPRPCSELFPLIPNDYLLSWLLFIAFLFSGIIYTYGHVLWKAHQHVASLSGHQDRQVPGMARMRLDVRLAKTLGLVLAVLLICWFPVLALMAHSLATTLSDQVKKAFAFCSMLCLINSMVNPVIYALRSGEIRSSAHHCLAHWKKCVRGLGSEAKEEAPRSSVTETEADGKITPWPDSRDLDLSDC
Compound,"Ki [1, 6] [nM]","Ki [2, 7] [nM]",also measured
"CC(C)(C)[C@H](NC(=O)c1cn(Cc2ccc(F)cc2)c2ccccc12)C(N)=O [compound 10, ADB-FUBICA]",53.8,5.15,–
"CCCC(C)(C)c1ccc2c(c1)OC(C)(C)[C@@H]1CC=C(C)C[C@@H]21 [JWH-133, reference compound]",–,–,"CB2R Emax AMPc ([3]; normalized to maximal efficacious concentration of CP 55,940): 98%; EC50 ([3]; transfected HEK-293T cells, forskolin-stimulated cAMP, read-out: CB2R EC50 AMPc): 6.73 ± 0.5 nM; EC50 [4]: 1.34 ± 0.05 nM; CB2R Emax β-arrestin ([4]; normalized to CP 55,940): 93%; EC50 [5]: 2.7 ± 0.19 nM; CB2R Emax MAPK ([5]; normalized to CP 55,940): 98%"
"COC(=O)[C@@H](NC(=O)c1cn(Cc2ccc(F)cc2)c2ccccc12)C(C)C [compound 4, AMB-FUBICA]",–,–,"Ki ([1]; abused SCRAs and N-methyl analogues, earlier study of the authors; read-out: CB1R Ki; cited from earlier work): 47.8 nM; Ki ([2]; abused SCRAs and N-methyl analogues, earlier study of the authors; read-out: CB2R Ki; cited from earlier work): 20 nM"
NC(=O)CNC(=O)c1nn(CC2CCCCC2)c2ccccc12 [compound 13],268,171,–
COC(=O)CNC(=O)c1nn(Cc2ccc(F)cc2)c2ccccc12 [compound 11],181,125,–
"CC(C)[C@H](NC(=O)c1cn(Cc2ccc(F)cc2)c2ccccc12)C(N)=O [compound 8, AB-FUBICA]",35.2,83.2,–
"COC(=O)[C@@H](NC(=O)c1nn(CCCCCF)c2ccccc12)C(C)(C)C [compound 1, 5F-MDMB-PINACA]",0.8,0.1,–
CN(CC(N)=O)C(=O)c1nn(CC2CCCCC2)c2ccccc12 [compound 14],–,482,"CB1R % (1 μM) [1, 8]: 21%"
"COC(=O)[C@@H](NC(=O)c1nn(Cc2ccc(F)cc2)c2ccccc12)C(C)(C)C [compound 2, MDMB-FUBINACA]",0.83,0.3,–
"COC(=O)[C@@H](NC(=O)c1cn(CC2CCCCC2)c2ccccc12)C(C)C [compound 3, AMB-CHMICA]",10.5,3.44,–
"CC(C)(C)[C@H](NC(=O)c1cn(CC2CCCCC2)c2ccccc12)C(N)=O [compound 9, ADB-CHMICA]",1.1,0.76,–
COC(=O)CN(C)C(=O)c1nn(Cc2ccc(F)cc2)c2ccccc12 [compound 12],–,540,"CB1R % (1 μM) [1, 8]: 33%"
"CC(C)[C@H](NC(=O)c1cn(CCCCCF)c2ccccc12)C(N)=O [compound 7, 5F-AB-PICA]",14.8,8.6,–
CC(C)[C@H](NC(=O)c1nn(CC2CCCCC2)c2ccccc12)C(N)=O [compound 6],0.9,1.1,–
"CCCCCn1nc(C(=O)N[C@H](C(N)=O)C(C)C)c2ccccc21 [compound 5, AB-PINACA]",1.16,0.94,–
